# Measurements taken from ChEMBL document CHEMBL2074520, “Characterization of the high-affinity monocarboxylate transporter MCT2 in Xenopus laevis oocytes” (Biochem J, 1999).
# What was measured:
# [1] = molecular target: Monocarboxylate transporter 2 (Rattus norvegicus) (UniProt Q63344); test: (§1) TP_TRANSPORTER: inhibition of lactate uptake in Xenopus laevis oocytes; format: functional, cell-based; design: concentration or dose not given beside the values; conditions: Oocyte
# [2] = molecular target: Monocarboxylate transporter 1 (Rattus norvegicus) (UniProt P53987); test: as §1; format: functional, cell-based; design: concentration or dose not given beside the values; conditions: Oocyte
# [3] = molecular target: T1, Monocarboxylate transporter 1 (Rattus norvegicus) (UniProt P53987); test: as §1; format: functional, cell-based; design: concentration or dose not given beside the values; conditions: Oocyte; remark: listed apart in the source
# T1 sequence (whole entry): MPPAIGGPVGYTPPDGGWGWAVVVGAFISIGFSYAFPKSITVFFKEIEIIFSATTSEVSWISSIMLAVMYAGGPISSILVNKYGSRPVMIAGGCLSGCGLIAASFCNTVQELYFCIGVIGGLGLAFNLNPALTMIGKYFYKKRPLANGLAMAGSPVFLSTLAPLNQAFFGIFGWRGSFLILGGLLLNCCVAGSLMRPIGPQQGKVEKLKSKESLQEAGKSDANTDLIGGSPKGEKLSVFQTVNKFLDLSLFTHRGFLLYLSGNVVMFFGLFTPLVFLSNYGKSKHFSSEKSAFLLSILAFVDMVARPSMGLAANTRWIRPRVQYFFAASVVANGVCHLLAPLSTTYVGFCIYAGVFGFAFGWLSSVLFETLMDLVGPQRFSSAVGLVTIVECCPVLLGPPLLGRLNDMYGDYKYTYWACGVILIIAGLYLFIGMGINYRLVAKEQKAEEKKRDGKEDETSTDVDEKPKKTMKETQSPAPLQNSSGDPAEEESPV
# [4] = molecular target: T2, Monocarboxylate transporter 2 (Rattus norvegicus) (UniProt Q63344); test: as §1; format: functional, cell-based; design: concentration or dose not given beside the values; conditions: Oocyte; remark: listed apart in the source
# T2 sequence (whole entry): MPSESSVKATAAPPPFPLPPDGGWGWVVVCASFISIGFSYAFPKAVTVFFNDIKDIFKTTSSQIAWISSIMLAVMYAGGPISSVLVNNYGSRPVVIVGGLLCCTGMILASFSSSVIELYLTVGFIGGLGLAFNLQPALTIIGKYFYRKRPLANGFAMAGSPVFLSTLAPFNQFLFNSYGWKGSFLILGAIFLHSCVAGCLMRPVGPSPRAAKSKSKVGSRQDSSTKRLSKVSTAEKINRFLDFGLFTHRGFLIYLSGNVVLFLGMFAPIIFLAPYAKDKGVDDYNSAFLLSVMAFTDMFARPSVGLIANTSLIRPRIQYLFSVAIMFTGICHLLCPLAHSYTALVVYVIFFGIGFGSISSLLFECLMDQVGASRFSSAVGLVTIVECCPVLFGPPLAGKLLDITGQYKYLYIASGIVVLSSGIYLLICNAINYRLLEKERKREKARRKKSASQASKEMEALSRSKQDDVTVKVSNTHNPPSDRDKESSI
# [5] = molecular target: T3, Monocarboxylate transporter 2 (Rattus norvegicus, UniProt Q63344); test: as §1; format: functional, cell-based, Oocyte
# T3 sequence (Q63344 whole entry): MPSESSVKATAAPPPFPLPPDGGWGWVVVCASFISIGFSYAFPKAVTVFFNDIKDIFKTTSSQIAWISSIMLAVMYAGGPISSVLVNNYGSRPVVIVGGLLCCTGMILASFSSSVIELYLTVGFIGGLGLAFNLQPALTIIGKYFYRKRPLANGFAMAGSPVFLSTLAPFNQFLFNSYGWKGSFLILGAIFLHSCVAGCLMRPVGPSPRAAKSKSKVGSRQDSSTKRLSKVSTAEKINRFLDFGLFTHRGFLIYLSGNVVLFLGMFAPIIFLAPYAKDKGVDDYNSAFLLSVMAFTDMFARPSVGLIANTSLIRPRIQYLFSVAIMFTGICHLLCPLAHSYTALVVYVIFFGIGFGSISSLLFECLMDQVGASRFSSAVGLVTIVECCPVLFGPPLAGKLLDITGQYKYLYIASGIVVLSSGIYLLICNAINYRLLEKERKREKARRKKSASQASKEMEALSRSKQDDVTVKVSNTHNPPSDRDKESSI
# [6] = molecular target: T4, Monocarboxylate transporter 1 (Rattus norvegicus, UniProt P53987); test: as §1; format: functional, cell-based, Oocyte
# T4 sequence (P53987 whole entry): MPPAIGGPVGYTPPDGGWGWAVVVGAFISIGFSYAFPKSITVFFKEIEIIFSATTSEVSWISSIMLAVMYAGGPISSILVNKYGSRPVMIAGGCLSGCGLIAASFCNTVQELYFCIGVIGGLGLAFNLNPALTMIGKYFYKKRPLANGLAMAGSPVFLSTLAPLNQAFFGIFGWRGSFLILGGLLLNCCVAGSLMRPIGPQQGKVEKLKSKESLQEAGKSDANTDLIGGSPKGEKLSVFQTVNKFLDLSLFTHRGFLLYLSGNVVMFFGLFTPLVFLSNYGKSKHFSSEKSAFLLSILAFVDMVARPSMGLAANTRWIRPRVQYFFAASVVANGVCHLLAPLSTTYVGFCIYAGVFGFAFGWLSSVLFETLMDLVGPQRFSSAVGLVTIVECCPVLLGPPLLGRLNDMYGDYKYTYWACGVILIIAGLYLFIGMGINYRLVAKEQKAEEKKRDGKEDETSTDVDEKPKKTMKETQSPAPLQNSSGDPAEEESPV
# [7] = compound: C[C@@H](O)C(=O)O; test: as §1; format: functional, cell-based; conditions: Oocyte
Molecule,Activity [3] [%],Activity [4] [%],other results
p-Chloromercuribenzenesulfonate,,,Activity [1]: 118%; Activity [2]: 9%
O=[N+]([O-])c1ccc(/C=C/c2ccc([N+](=O)[O-])cc2S(=O)(=O)O)c(S(=O)(=O)O)c1,112,119,
O=C(O)c1ccc(-c2ccccc2)cc1,88,74,
MERCURIC CHLORIDE,,,Activity [1]: 54%; Activity [2]: 37%
CCCN(CCC)S(=O)(=O)c1ccc(C(=O)O)cc1,110,88,
O=C(O)c1c2ccccc2cc2ccccc12,102,104,
O=C(O)c1cc([N+](=O)[O-])ccc1NCCCc1ccccc1,54,25,
CC(=O)Oc1ccccc1O,92,105,
O=C(O)CC12CC3CC(CC(C3)C1)C2,96,113,
CC(=O)CC(=O)O [ACETOACETIC ACID],,,Ki [5]: 800 µM
O=C(O)c1cccnc1Nc1cccc(C(F)(F)F)c1,36,14,
c1ccc(CSSCc2ccccc2)cc1,99,44,
"CC(O)CC(=O)O (racemic) [3-HYDROXYBUTYRIC ACID, (+/-)-]",,,Ki [5]: 1200 µM
N#C/C(=C\c1ccc(O)cc1)C(=O)O [alpha-CYANO-4-HYDROXYCINNAMIC ACID],74.4,34,IC50 [6]: 425 µM; IC50 [5]: 24 µM
O=C(CCc1ccc(O)cc1)c1c(O)cc(O)cc1O [PHLORETIN],14,3,IC50 [6]: 28 µM; IC50 [5]: 14 µM
CCCCCC#CCC#CCC#CCC#CCCCC(=O)O,117,125,
CC(C)C(=O)C(=O)O [2-Oxoisovalerate],,,Ki [5]: 300 µM
CC(C)CC(=O)C(=O)O [2-Oxoisohexanoate],,,Ki [5]: 100 µM
O=c1c(O)c(-c2ccc(O)c(O)c2)oc2cc(O)cc(O)c12 [QUERCETIN],11,17,IC50 [6]: 14 µM; IC50 [5]: 5 µM
CCc1oc2ccccc2c1C(=O)c1cc(Br)c(O)c(Br)c1 [BENZBROMARONE],19,12,IC50 [6]: 22 µM; IC50 [5]: 9 µM
CC(=O)C(=O)O [PYRUVATE],,,Ki [5]: 80 µM
O=C(O)C(O)c1ccccc1 (stereo not drawn),97,117,
"Monocarboxylate transporter 2 (Rattus norvegicus), Q63344 (protein) MPSESSVKATAAPPPFPLPPDGGWGWVVVCASFISIGFSYAFPKAVTVFFNDIKDIFKTTSSQIAWISSIMLAVMYAGGPISSVLVNNYGSRPVVIVGGLLCCTGMILASFSSSVIELYLTVGFIGGLGLAFNLQPALTIIGKYFYRKRPLANGFAMAGSPVFLSTLAPFNQFLFNSYGWKGSFLILGAIFLHSCVAGCLMRPVGPSPRAAKSKSKVGSRQDSSTKRLSKVSTAEKINRFLDFGLFTHRGFLIYLSGNVVLFLGMFAPIIFLAPYAKDKGVDDYNSAFLLSVMAFTDMFARPSVGLIANTSLIRPRIQYLFSVAIMFTGICHLLCPLAHSYTALVVYVIFFGIGFGSISSLLFECLMDQVGASRFSSAVGLVTIVECCPVLFGPPLAGKLLDITGQYKYLYIASGIVVLSSGIYLLICNAINYRLLEKERKREKARRKKSASQASKEMEALSRSKQDDVTVKVSNTHNPPSDRDKESSI",,,Km [7]: 740 µM
